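Protocol summary: plate cells (96-well), add compound at 5 concentrations, incubate 48 h, interpolate endpoints linearly. GI50: concentration for 50% inhibition of growth.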 Calls of active or inactive are those of the source. No stated cut-off is given here; in the data, active = GI50 up to about 1.1 µM and inactive = higher.

Test systems include CCRF-CEM; SNB-75; HCT-116; SNB-19; SK-MEL-5; 786-0; EKVX; HT-29; HOP-92; OVCAR-4; SR; M14; CAKI-1; T47D; SK-OV-3; HL-60; UACC-62; Malme-3M; U-251; IGROV-1.
What all share (assay): inhibition of tumour cell growth, NCI panel, 48 h

For `N#CC(NC12CC3CC(CC(C3)C1)C2)c1ccc2c(c1)OCO2` (stereo not given), the GI50 in the assay with CCRF-CEM, with SNB-75, with HCT-116, in the assay on SNB-19, in the assay on SK-MEL-5 and in the assay on 786-0 was > 100 µM (inactive) in each case. Moreover, the GI50 was > 100 µM (inactive) in the assay with EKVX; > 100 µM (inactive) in the assay with HT-29; 89.1 µM (inactive) in the assay on HOP-92; > 100 µM (inactive) in the assay with OVCAR-4; > 100 µM (inactive) in the assay on SR; > 100 µM (inactive) in the assay with M14. Further, the GI50 in the assay with CAKI-1, in the assay with T47D, in the assay with SK-OV-3, in the assay with HL-60, with UACC-62 and in the assay on Malme-3M was > 100 µM (inactive) in each case. For the same compound, the GI50 with U-251 and in the assay on IGROV-1 was > 100 µM (inactive) in each case.
For `O=C(NNS(=O)(=O)c1ccc(Br)cc1)c1ccc(Cl)cc1NC(=O)C12CC3CC(CC(C3)C1)C2`, the GI50 in the assay with CCRF-CEM was 14.6 µM (inactive); in the assay on SNB-75 it was 14.2 µM (inactive); with HCT-116 it was 21.2 µM (inactive); in the assay with SNB-19, 15.4 µM (inactive); with SK-MEL-5, 10.9 µM (inactive); with 786-0 it was 19.5 µM (inactive). The GI50 was 11.3 µM (inactive) in the assay on EKVX; 11.8 µM (inactive) in the assay with HT-29; 12.2 µM (inactive) with HOP-92; 10.6 µM (inactive) in the assay on OVCAR-4; 12.4 µM (inactive) with SR; 15 µM (inactive) in the assay with M14. In addition, the GI50 in the assay with CAKI-1 was 17 µM (inactive); in the assay with T47D it was 15.2 µM (inactive); in the assay on SK-OV-3, 16.4 µM (inactive); with HL-60 it was 18.9 µM (inactive); with UACC-62, 12.4 µM (inactive); in the assay on Malme-3M it was 14.8 µM (inactive). In addition, the GI50 is 10.8 µM (inactive) with U-251 and 11.9 µM (inactive) in the assay with IGROV-1.
As for `CC(C)(C)c1cc(C(C)(C)C)c(P=C(Cl)Cl)c(C(C)(C)C)c1` (stereo not given), the GI50 in the assay on CCRF-CEM, in the assay on SNB-75, in the assay with HCT-116, with SNB-19, in the assay on SK-MEL-5 and in the assay on 786-0 was > 100 µM (inactive) in each case. Moreover, the GI50 with EKVX, with HT-29, in the assay on HOP-92, in the assay on OVCAR-4, in the assay with SR and in the assay with M14 was > 100 µM (inactive) throughout. Moreover, the GI50 in the assay with CAKI-1, in the assay on T47D, with SK-OV-3, in the assay on HL-60, in the assay on UACC-62 and in the assay with Malme-3M was > 100 µM (inactive) each time. Moreover, the GI50 in the assay with U-251 and with IGROV-1 was > 100 µM (inactive) in each case.
On to `C=C1C(=O)O[C@H]2C3C(=C(C)CC[C@@H]12)C(=O)[C@@H]1OC31C` (stereo not given in full), for which the GI50 in the assay with CCRF-CEM is 0.318 µM (active); with SNB-75, 2.38 µM (inactive); in the assay on HCT-116, 1.11 µM (active); with SNB-19, 15.8 µM (inactive); in the assay with SK-MEL-5, 1.59 µM (inactive); with 786-0 it was 1.86 µM (inactive). In addition, the GI50 in the assay on EKVX is 14.4 µM (inactive); in the assay with HT-29 it was 1.66 µM (inactive); in the assay on HOP-92, 2.93 µM (inactive); with OVCAR-4, 1.58 µM (inactive); with SR it was 0.622 µM (active); in the assay with M14, 1.68 µM (inactive). The GI50 is 2.67 µM (inactive) in the assay with CAKI-1; 1.81 µM (inactive) in the assay with T47D; 15.4 µM (inactive) in the assay with SK-OV-3; 0.23 µM (active) in the assay on HL-60; 2.04 µM (inactive) with UACC-62; 2.2 µM (inactive) in the assay with Malme-3M. The GI50 was 13.4 µM (inactive) in the assay with U-251 and 5.45 µM (inactive) in the assay on IGROV-1.

The values above are taken from ChEMBL document CHEMBL1201862, “PubChem BioAssay data set” (2004).
